Here are results for seven molecules from PubChem BioAssay (NCI).

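Growth conditions: 96-well plates. Treatment: test compound, 48 hours, 5 concentrations. Analysis: linear interpolation between bracketing concentrations; unreached endpoints set to highest concentration. TGI: total growth inhibition.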

Assay in all cases: DTP human tumour cell line panel, 48 h
Assay [1] concerns CAKI-1 renal.
For assay [2], the system named is EKVX NSCLC.
Assay [3] concerns HCC-2998 colon.
Assay [4] has as its system NCI-H460 lung.
Assay [5] relates to NCI-H522 lung.
The test system of assay [6] is NCI/ADR-RES ovarian.
The test system of assay [7] is OVCAR-5 ovarian.
For assay [8], the system named is SK-MEL-28 melanoma.
In assay [9] the test system is SN12C renal.
Assay [10] concerns T-47D breast.
The test system of assay [11] is U251 CNS.
The test system of assay [12] is UO-31 renal.

As for `NC(=O)C(=O)C(c1ccccc1)S(=O)(=O)Cc1ccccc1` (centres undefined), the TGI in assay [1], in assay [2], in [3], in assay [4], in assay [5] and in assay [6] was above 100 µM each time. Also, the TGI in [7], in [8], in assay [9], in assay [10], in assay [11] and in assay [12] was above 100 µM throughout.
On to `Clc1ccc(-c2ccc(-c3nnc(COc4ccc(OCc5nnc(-c6ccc(-c7ccc(Cl)cc7Cl)o6)o5)c(Cl)c4)o3)o2)c(Cl)c1`, for which the TGI in assay [1], in assay [2], in [3], in [4], in assay [5] and in assay [6] was above 100 µM in each case. In addition, the TGI in [7], in assay [8], in [9], in [10], in assay [11] and in assay [12] was above 100 µM throughout.
`N#Cc1c(O)c(N=Nc2ccc(Cl)cc2)c(=O)n2c1[nH]c1ccccc12`: the concentration for total growth inhibition (TGI) in assay [1], in assay [2], in [3], in assay [4], in assay [5] and in assay [6] was above 100 µM each time. Moreover, the TGI in assay [7], in assay [8], in assay [9], in assay [10], in [11] and in assay [12] was above 100 µM in each case.
As to `O=C(Cc1nc2ncccc2[nH]c1=O)c1c[nH]c2ccccc12`, the total growth inhibition concentration (TGI) was 31.9 µM in [1]; 56.9 µM in [2]; 34.6 µM in assay [3]; 34.4 µM in [4]; 35.4 µM in assay [5]; above 100 µM in assay [6]. For the same molecule, the TGI in assay [7] came to 59.2 µM; in [8], 32.8 µM; in assay [9], 35.9 µM; in assay [10] it was 34.5 µM; in assay [11], 35.1 µM; in [12], 32.5 µM.
As to `C=C(C)C(O)C(O)C[C@@H](C)C1CC[C@]23C[C@]12CCC1[C@@]2(C)CCC(OC(C)=O)C(C)(C)C2CC(OC2OC(CO)C(O)C(O)C2O)[C@]13C` (some centres undefined), the TGI in assay [1] is above 100 µM; in assay [2], above 100 µM; in [3], 29.1 µM; in [4], 34.5 µM; in assay [5], 30.7 µM; in assay [6], above 100 µM. Besides, the TGI was 45.9 µM in assay [7]; 37.1 µM in assay [8]; 30.9 µM in assay [9]; 31.6 µM in [10]; 29.1 µM in assay [11]; above 100 µM in [12].
For `COC(=O)c1c[nH]c2c1-c1cc(C(=O)OCc3ccccc3)n(S(=O)(=O)c3ccc(C)cc3)c1C(=O)C2=O`, the TGI is 2.65 µM in assay [1]; 0.291 µM in assay [2]; 1.9 µM in assay [3]; 2.69 µM in assay [4]; 0.607 µM in assay [5]; 6.01 µM in [6]. Also, the total growth inhibition concentration (TGI) worked out at 2.9 µM in assay [7]; 0.244 µM in assay [8]; 0.481 µM in assay [9]; 2.47 µM in [10]; 1.13 µM in assay [11]; 1.38 µM in assay [12].
For `Nc1c(N2CCOCC2)c(=O)nc2[nH]/c(=C\c3ccccc3)c(=O)n12`, the TGI in [1], in [2], in assay [3], in assay [4], in assay [5] and in assay [6] was above 100 µM in each case. The TGI in assay [7], in assay [8], in assay [9], in assay [10], in [11] and in [12] was above 100 µM throughout.

As a reminder, the TGI is the concentration at which net growth stops.
